Values quoted from earlier work in patent US11103497B2, “Treatment of imatinib resistant leukemia” (Wyeth LLC, priority 2007, dated 2021).

Test system: BcrAbl T315I
Details: patients with amino acid mutation T315I in BcrAbl; cited from earlier work

Cc1cn(-c2cc(NC(=O)c3ccc(C)c(Nc4nccc(-c5cccnc5)n4)c3)cc(C(F)(F)F)c2)cn1 [nilotinob]
effectiveness against CML: not effective
